The values below come from patent publication US4323550A, “Halogenohydrates of N,N-disubstituted derivatives of piperazine having anticariogenic properties” (priority 1976, dated 1982).

One data set can be described thus: Solubility. It is filed as physicochemical.
Data set [1] can be described thus: Acute oral toxicity in mice. In kind it is in vivo. The conditions noted are these: in vivo, mouse, Lichfield and Wilcoxon. The method, then: (§1) By way of example there are described below the comparative tests made on difluorohydrate of N,N'-di(hydroxyethyl) piperazine and on fluorohydrate of hexadecylamine or "ELMEX 242".
(§2) The acute toxidity was studies in rats and in mice.
(§3) The animals came from a homogeneous breed. The mice weighed between 19 and 21 g and the rats weighed from 120 to 140 g. The mice were grouped in lots of 10 and the rats in lots of 8.
(§4) The administrations took place orally at a volume of 0.5 ml per 20 g of mouse and 1 ml per 100 g of rat. The LD50 was determined by the method of Lichfield and Wilcoxon.
(§5) As regards the difluorohydrate of N,N'-di(hydroxyethyl) piperazine, the administered solution was prepared by diluting the mother solution to 65.4%, the dilutions being made after having weighed this solution. The administered dose is expressed by weight, taking account of the indicated strength of this solution.
(§6) For the solid "ELMEX 242" an aqueous suspension was prepared with the aid of solubilizing agents (e.g. Tween-polyoxyethylene sorbitan monolaurate). A very thick suspension is then obtained which tends to foam heavily, is difficult to get into the esophageal sound, and the determination of its volume is rendered difficult by the foam.
(§7) The results obtained with the "ELMEX" are therefore rather approximate.

For a further data set, the system named is mice. Put plainly: Acute oral toxicity in mice. The conditions noted are these: mouse. It is filed as in vivo. Here is the method:
as §1, §2, §3, §4, §5, §6, §7

Another data set relates to rats. The data set can be described thus: in vivo. It is filed as in vivo. Conditions: rat, oral; for Deaths: D + 10, 8 per lot. Here is the method: as §1, §2, §3, §4, §5, §6, §7
Data set [2] in a line: Penetration of fluorine 18 into dental enamel after topical application (Muhlemann biopsy). On the set-up: species or system children. The source says:
The anticariogenic activity of the difluorohydrate of N,N'-di(hydroxy-ethyl) piperazine has been evidenced by comparison with sodium fluoride known for its cariopreventive topical properties. A comparative study has been made of the penetration into the dental enamel of the fluorine contained in the molecule according to the invention and of the fluorine contained in sodium fluoride.
For this comparison the difluorohydrate of N,N'-di(hydroxy-ethyl) piperazine was marked at the fluorine 18, by isotopic exchange by dissolving some crystals of the product according to the invention in a solution of pure fluorine 18 without entrainer. The same was done for the sodium fluoride.
The study of the penetration of the fluorine into the enamel was made on several teeth to compare the behavior of the product of the invention and of sodium fluoride in supplying fluorine and in the penetration of the latter into the deepest layers of the dental tissue.
The tests were performed on 30 premolar teeth taken from normal children 9 to 11 years old. Eighteen teeth were treated by topical application of the radioactive solutions of the difluoro-hydrate of N,N'-di(hydroxy-ethyl) piperazine or of NaF adjusted to pH=3.5; the other 12 were treated with the same solutions adjusted to a pH of 7.4.
The radioactive solutions are obtained by dissolving 69 mg of the difluorohydrate and 81.3 mg of NaF, respectively, in 1 and 3 ml of fluorine 18 solution without entrainer. Thus solutions titering 1.23% fluorine are obtained.
As the difluorohydrate solution is already at pH=3.5, it is sufficient to acidify the NaF solution by addition of about 0.2 ml hydrochloric acid 6 M, to 3 ml of the radioactive solution.
In this case, the difluorohydrate's nature of organic salt can be preserved and its solution neutralized at 1.23% of fluorine in 1 ml by addition of about 110 mg of its N,N'-di(hydroxyethyl) piperazine base.
For the experimentation one determines two enamel plagues on each tooth. For this, one applies on the crowns, separated from each other by 2 or 3 mm, two round disks of a diameter of 3 mm cut out from adhesive tape. The crown is then covered with a layer of impermeable varnish. When the varnish is dry, the patches of adhesive tape are removed, thus bearing the two zones of enamel to be treated.
The spot application of the fluorinated solution is done by means of a sponge imbibed with 0.5 ml of the solution. This sponge is inserted in a polyethylene tube to limit the surface of contact between tooth and sponge to the circumference of the enamel zone treated.
The sampling of the enamel is done by Muhlemann's biopsy technique: A patch of blotting paper impregnated with 4 microliters of perchloric acid 2 M is applied on the trated enamel for 30 seconds. The enamel is dried with a second patch of blotting paper. It is on these patches which contain the dissolved enamel that we measure the radioactivity.
There are given in Table I all the results relating to the acid treatment, in Table II all the results relating to the treatment at neutral pH. The fluorine values are those obtained by measuring the radioactivity of the samples.
The columns […] and N2 represent the mass of fluorine measured on the second biopsy.
We have marked R1 and R1 and R2 the ratios G1 /G2 and N1 /N2, and R3 the ratio. [formula] R1 and R2 permitting to compare the quantities of fluorine at the same depth. R3 permits comparing the accumulation of fluorine in the tooth.

Turning to `OCCN1CCN(CCO)CC1` [DI-IODOHYDRATE OF N,N'-DI-(BETA-HYDROXY-ETHYL) PIPERAZINE], in “Solubility”, the “solubility in water, in alcohols, glycols” value is given as “soluble”.

The term LD50 denotes the dose expected to kill half of the subjects tested. Compound `CCCCCCCCCCCCCCCCN` [ELMEX 242, fluorohydrate of hexadecylamine] returned a median lethal dose (LD50) at 240 h in data set [1] of 1250 mg/kg. Also, in the data set with mice, the “course: death and recovery” value was “Death occurs in a few hours; for others recovery is also fairly rapid”. Further, the symptoms entry in the data set with mice was “The animals have diarrhea. The mice are totally immobile and tremble”. The Deaths is 0 with mice (600 mg/kg, D + 1, 10 per lot); 0 with mice (600 mg/kg, D + 2, 10 per lot); 0 in the data set on mice (600 mg/kg, D + 5, 10 per lot); 0 in the data set on mice (600 mg/kg, D + 10, 10 per lot); 0 with mice (800 mg/kg, D + 1, 10 per lot); 0 with mice (800 mg/kg, D + 2, 10 per lot). The Deaths with mice (800 mg/kg, D + 5, 10 per lot) was found to be 0; in the data set on mice (800 mg/kg, D + 10, 10 per lot) it was 0; with mice (1000 mg/kg, D + 1, 10 per lot), 1; in the data set on mice (1000 mg/kg, D + 2, 10 per lot), 2; in the data set with mice (1000 mg/kg, D + 5, 10 per lot), 2; in the data set with mice (1000 mg/kg, D + 10, 10 per lot), 2. The Deaths with mice (1250 mg/kg, D + 1, 10 per lot) is listed as 1; in the data set with mice (1250 mg/kg, D + 2, 10 per lot) it was 2; with mice (1250 mg/kg, D + 5, 10 per lot) it was 3; with mice (1250 mg/kg, D + 10, 10 per lot), 3; in the data set on mice (1500 mg/kg, D + 1, 10 per lot) it was 4; in the data set with mice (1500 mg/kg, D + 2, 10 per lot), 7. Also, the Deaths came out at 9 in the data set with mice (1500 mg/kg, D + 5, 10 per lot); 9 with mice (1500 mg/kg, D + 10, 10 per lot); 3 in the data set with mice (1750 mg/kg, D + 1, 10 per lot); 4 in the data set with mice (1750 mg/kg, D + 2, 10 per lot); 9 in the data set on mice (1750 mg/kg, D + 5, 10 per lot); 9 with mice (1750 mg/kg, D + 10, 10 per lot). The Deaths in the data set with mice (2000 mg/kg, D + 1, 10 per lot) is given as 9; with mice (2000 mg/kg, D + 2, 10 per lot), 10; with mice (2000 mg/kg, D + 5, 10 per lot), 10; in the data set on mice (2000 mg/kg, D + 10, 10 per lot), 10; in the data set on mice (2500 mg/kg, D + 1, 10 per lot), 10; in the data set on mice (2500 mg/kg, D + 2, 10 per lot), 10. Also, the Deaths with mice (2500 mg/kg, D + 5, 10 per lot) was determined as 10; in the data set on mice (2500 mg/kg, D + 10, 10 per lot), 10; in the data set on rats (125 mg/kg), 0; with rats (150 mg/kg), 0; in the data set on rats (500 mg/kg), 0. Besides, the symptoms / behavior entry in the data set on rats is “The behavior of the animals is normal”.

Take `[F-].[Na+]` [NaF, sodium fluoride, reference compound]: in data set [2] (neutral medium, 12 teeth), the “mean value of R2” value is on record as 3.6. For the same compound, in data set [2] (pH 3.5 versus pH 7.4), the “average fluorine sampled in the two biopsies, acid pH compared with neutral pH” value is reported as 3.6.
